Test results published in patent US20240307334A1 (Lieber Institute, Inc., priority 2023, published 2024).
Where a name gives a salt, the structure may show the parent alone.

Legend:
[1] = system: Tcf4+/tr mouse model of PTHS; assay: In vivo immunohistochemical (IHC) quantification of OPCs and OLs after two-week intraperitoneal dosing
From the text: The Tcf4^+/tr mouse model of PTHS is heterozygous for an allele encoding deletion of the DNA-binding domain of TCF4 (B6; 129-TCF4tmlZhu/J, stock number 013598, Jackson Laboratory). This mouse colony was backcrossed for at least six generations, maintained by The Lieber Institute for Brain Developments Animal Facility on a 12-h light/dark cycle and fed ad libitum. Tcf4^+/tr mouse samples were matched with samples from Tcf4^+/+ littermates, and sex was randomly selected in each genotype and age group. All procedures were performed in accordance with the National Institutes of Health Guide for the Care and Use of Laboratory Animals and approved by the Johns Hopkins University School of Medicine's Institutional Animal Care and Use Committee.
(§1) The final pH was approximately 5.
(§2) Mice were dosed at 1.0 mg/kg/day for 14 days with either Sob-AM2 or NMP/Kolliphor solution (vehicle).
(§3) Cells were rinsed 1× with PBS and then fixed with 4% paraformaldehyde (PFA) for 5 minutes, following fixation cells were rinsed 3× with PBS. Similarly, mice were perfused with 20-30 mLs of 1× PBS, followed by 20-30 mLs of 4% PFA. Tissue was extracted and post fixed in 4% PFA on a rocker at 4° C. overnight. For immunostaining cells were rinsed 3× with 0.04% Tween 20 (Sigma 655204) while tissue (P42 mouse) was rinsed 3× with 0.4% Triton (Sigma X100). Cells were blocked in respective serum (10%) for 2 hours at room temperature on an orbital shaker. Following block, primary antibody was added in 2% serum in 0.04% Tween 20 for cells and 0.4% Triton-X 100 for tissue, and incubated overnight at 4° C. Following overnight incubation cells were rinsed 3× with 0.04% Tween 20 or 0.4% Triton respectively before adding the secondary antibody to incubate at room temperature for 2 hours. After incubation, cells were rinsed 3× in respective buffers and counterstained with DAPI (Invitrogen™, D1306). Visualization was carried out on a ZEISS LSM 700 Confocal. Imaging and quantification were performed blind to genotypes and conditions/treatments.
Next, we assessed the effectiveness of Sob-AM2 in vivo by dosing Tcf4^+/tr mice and Tcf4^+/+ littermates intraperitoneally with either Sob-AM2 (1 mg/kg) or vehicle for two weeks followed by immunohistochemical (IHC) quantification (FIG. 7D).

[2] = system: Tcf4+/tr mouse model of PTHS; assay: Novel open field assay (locomotor activity and anxiety); assay type: in vivo; details: Tcf4+/tr mice
Description: as §1, §2
Locomotor activity and anxiety was assessed using Noldus PhenoTyper cages as previously shown. Mickelsen et al., 2019. Each cage is outfitted with two sets of cameras; one on the ceiling that faces the platform (35 cm×35 cm), and another pointed at the side of the cage. Mice were acclimated to the experimentation room in their home cages for at least 1 h. During acclimation, the Noldus EthoVision software was set-up to track movement for 30 total minutes. After acclimation, mice were placed in the center of the open field, opaque Plexiglas was placed on all four sides of the cage to obscure any visual cues, and the trial was started in the EthoVision software. After 30 min, the trial ended, and mice were placed back into their home cages. Noldus EthoVision software was used to determine distance traveled, time spent in center, and frequency of going to center.
Next we treated Tcf4^+/tr mice and Tcf4^+/+ littermates with Sob-AM2 for 14 days and then assayed their behavior in the open field (FIG. 8A).

[3] = following systemic administration, prodrug compared with sobetirome; cited from earlier work
[4] = system: primary OPC/OL cultures from Tcf4+/tr and Tcf4+/+ mice; assay: Primary OPC and OL cultures: immunocytochemistry quantification of OPCs and OLs normalized to Olig2; assay type: cell-based, mouse; details: for OPCs (PDGFRα+/Olig2+) / mature OLs (MBP+/Olig2+): Tcf4+/tr cells
Description: Mice were dosed at 1.0 mg/kg/day for 14 days with either Sob-AM2 or NMP/Kolliphor solution (vehicle). Initial dosing was performed at P28 up until P42 when animals were then used for subsequent experiments.
Primary OPC and OLs were obtained following a previous protocol^19. In brief, P2-P3 pups were dissociated and plated at a density of 10.0×10^3 cells/cm^2 in a 96 well ibidi plate coated in 0.1% polyethyleneimine (PEI) and 0.5-μg/mL laminin. Cells were plated and maintained in OPC proliferation media consisting of 1× StemPro Neural supplement (Thermo Fisher Scientific, A1050801), 1× Anti-Anti (Thermo Fisher Scientific, 15240-096), 10 ng/mL of Human FGF-basic (Peprotech, 100-18B) and 30 ng/mL rhPDGF-AA (R&D systems, 221-AA), with a half media exchange on DIV4.
as §3
Mei et al., 2014; Yoshida et al., 2020. Following a previously established protocol, Yoshida et al., 2020, we dissociated and plated OPCs from both Tcf4^+/+ and Tcf4^+/tr mice onto 96-well plates in OPC proliferation media. […] We performed blinded quantification of OPCs and OLs using antibodies against PDGFRα and MBP, respectively, and normalized our counts with the pan-OL marker OLIG2 (FIG. 1B).
Hartley et al., 2019. We performed blinded quantification of OPCs and OLs using antibodies against PDGFRα and MBP, respectively, and normalized our counts with the pan-OL marker OLIG2 (FIG. 7A).

[5] = system: Tcf4+/tr mouse model of PTHS; assay: Transmission electron microscopy (TEM) of myelination in the corpus callosum; assay type: in vivo
Description: 5% DMA (dimethylacetamide, Sigma 271012) was added up to the total volume needed. […] The mixture was shaken vigorously (vortex) and was ready for administration for intraperitoneal (1P) dosing at 10 mL/kg. The final pH was approximately 5. […] Initial dosing was performed at P28 up until P42 when animals were then used for subsequent experiments.
After perfusion with a 0.1 M sodium cacodylate buffer, pH 7.2, containing 2% paraformaldehyde (freshly prepared from EM grade aqueous solution), 2% glutaraldehyde, and 3 mM MgCl2, p42 mouse brains were kept overnight in fixative. The next day brains were dissected in fixative and rinsed with sodium cacodylate buffer. Samples were then post-fixed in reduced 2% osmium tetroxide, 1.6% potassium ferrocyanide in buffer (2 hr) on ice in the dark. Following a dH2O rinse, samples were stained with 2% aqueous uranyl acetate (0.22 μm filtered, 1 hr, dark), dehydrated in a graded series of ethanol, propylene oxide and embedded in Eponate 12 (Ted Pella) resin. Samples were polymerized at 60° C. overnight. Thin sections, 60 to 90 nm, were cut with a diamond knife on the Reichert-Jung Ultracut E ultramicrotome and picked up with copper slot (1×2 mm) grids. Grids were stained with 2% uranyl acetate and observed with a Phillips CM120 TEM at 80 kV. Images were captured with an AMT XR80 CCD camera. Preparation of samples, TEM imaging, and quantification was performed blind to genotypes.
Blinded to genotype and condition, TEM images were taken on the CC directly above the hippocampus from anatomically equivalent tissue sections in littermates. […] To further validate this, we quantified BCAS1+ cells (pre-myelinating OLs).

[6] = system: multiple sclerosis; details: phase 2 clinical trial for multiple sclerosis; cited from earlier work
[7] = Tcf4+/tr mice, Sob-AM2 1 mg/kg intraperitoneally for two weeks
[8] = Sob-AM2 for 14 days, compared to vehicle-treated Tcf4+/tr littermates
[9] = clemastine (1 μM) DIV7 to DIV14, compared to vehicle treated Tcf4+/tr cells
[10] = Tcf4+/tr mice, clemastine 10 mg/kg intraperitoneally for two weeks (P28-P42)
[11] = clemastine for 14 days, 30 min open field
[12] = sobetirome (1 μM) 7 days to DIV14, compared to vehicle-treated Tcf4+/tr cells

Structure (SMILES): CNC(=O)COc1cc(C)c(Cc2ccc(O)c(C(C)C)c2)c(C)c1 [Sob-AM2]
- OPCs (PDGFRα+/Olig2+) [1, 7]: significant decrease in OPCs
- mature OLs (CC1+/Olig2+) [1, 7]: significant increase in mature OLs
- frequency of entering the center of the open field [2, 8]: reduction in the frequency of entering the center of the open field
- total distance traveled [2, 8]: significant reduction in total distance traveled
- crossing of the blood brain barrier and distribution to the central nervous system [3]: better able to cross the blood brain barrier

Structure (SMILES): CN1CCC[C@@H]1CCO[C@](C)(c1ccccc1)c1ccc(Cl)cc1 [clemastine, clemastine fumarate]
- OPCs (PDGFRα+/Olig2+) [4, 9]: significant reduction in OPCs
- mature OLs (MBP+/Olig2+) [4, 9]: an increase in OLs
- total number of Olig2 positive cells, in vitro ([4]; all conditions, in vitro assay): no effect on the total number of Olig2 positive cells
- number of BCAS1+ cells (pre-myelinating OLs) ([1]; Tcf4+/tr mice, 14 days clemastine): significantly increased the number of BCAS1+ cells
- OPCs (PDGFRα+/Olig2+) [1, 10]: significant decrease in OPCs
- mature OLs (CC1+/Olig2+) [1, 10]: significant increase in mature OLs
- total number of Olig2 positive cells, in vivo ([1]; all conditions, in vivo assay): no effect on the total number of Olig2 positive cells
- density of uncompacted myelin ([5]; Tcf4+/tr mice, clemastine vs vehicle-treated Tcf4+/tr mice): significantly increased the density of uncompacted myelin
- proportion of uncompacted myelin ([5]; Tcf4+/tr mice, relative to vehicle-treated Tcf4+/+ mice): normalized the proportion of uncompacted myelin
- total myelin density ([5]; Tcf4+/tr mice, two week clemastine treatment): unable to restore Tcf4^+/+ levels of total myelin density
- proportion of compact myelin per image ([5]; clemastine Tcf4+/+ and clemastine Tcf4+/tr): less compaction overall
- frequency of entering the center of the field [2, 11]: reduction in the frequency of entering the center of the field
- total distance traveled [2, 11]: significant reduction in total distance traveled
- remyelination in patients [6]: showed remyelination capabilities

Structure (SMILES): Cc1cc(OCC(=O)O)cc(C)c1Cc1ccc(O)c(C(C)C)c1 [sobetirome]
- OPCs (PDGFRα+/Olig2+) [4, 12]: significant reduction in OPCs
- mature OLs (MBP+/Olig2+) [4, 12]: an increase in OLs
